Source: publication PMC3789969, “The Allosteric Role of the AAA^+ Domain of ChlD Protein from the Magnesium Chelatase of Synechocystis Species PCC 6803” (The Journal of Biological Chemistry, 2013)

Target: T1, magnesium chelatase (ChlI, His6-ChlD, His6-ChlH); porphyrin site (Synechocystis sp. PCC 6803, UniProt P73020)
T1 construct: recombinant from E. coli; His6 tags on ChlD and ChlH; copies are assay ratio; with Magnesium-chelatase subunit ChlI; Magnesium-chelatase subunit ChlD
Test: continuous fluorometric MgDIX formation assay, Michaelis-Menten fit
Assay type: biochemical
Conditions: 5 mM ATP, Mg2+ (mutant not saturated with Mg2+), pH 7.7, 34 °C, I 0.1

T1 sequence (P51634 whole entry, form open): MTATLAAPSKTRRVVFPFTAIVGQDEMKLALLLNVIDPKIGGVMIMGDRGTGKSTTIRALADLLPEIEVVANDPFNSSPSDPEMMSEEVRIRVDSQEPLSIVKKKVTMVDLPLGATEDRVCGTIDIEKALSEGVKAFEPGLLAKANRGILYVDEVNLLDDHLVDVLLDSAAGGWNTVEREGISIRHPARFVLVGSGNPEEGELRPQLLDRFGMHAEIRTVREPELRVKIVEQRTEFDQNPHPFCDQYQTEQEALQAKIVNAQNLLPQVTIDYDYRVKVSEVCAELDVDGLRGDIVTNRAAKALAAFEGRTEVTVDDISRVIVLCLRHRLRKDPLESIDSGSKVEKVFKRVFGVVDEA
T1 sequence (P73020 entry or part of it, form open): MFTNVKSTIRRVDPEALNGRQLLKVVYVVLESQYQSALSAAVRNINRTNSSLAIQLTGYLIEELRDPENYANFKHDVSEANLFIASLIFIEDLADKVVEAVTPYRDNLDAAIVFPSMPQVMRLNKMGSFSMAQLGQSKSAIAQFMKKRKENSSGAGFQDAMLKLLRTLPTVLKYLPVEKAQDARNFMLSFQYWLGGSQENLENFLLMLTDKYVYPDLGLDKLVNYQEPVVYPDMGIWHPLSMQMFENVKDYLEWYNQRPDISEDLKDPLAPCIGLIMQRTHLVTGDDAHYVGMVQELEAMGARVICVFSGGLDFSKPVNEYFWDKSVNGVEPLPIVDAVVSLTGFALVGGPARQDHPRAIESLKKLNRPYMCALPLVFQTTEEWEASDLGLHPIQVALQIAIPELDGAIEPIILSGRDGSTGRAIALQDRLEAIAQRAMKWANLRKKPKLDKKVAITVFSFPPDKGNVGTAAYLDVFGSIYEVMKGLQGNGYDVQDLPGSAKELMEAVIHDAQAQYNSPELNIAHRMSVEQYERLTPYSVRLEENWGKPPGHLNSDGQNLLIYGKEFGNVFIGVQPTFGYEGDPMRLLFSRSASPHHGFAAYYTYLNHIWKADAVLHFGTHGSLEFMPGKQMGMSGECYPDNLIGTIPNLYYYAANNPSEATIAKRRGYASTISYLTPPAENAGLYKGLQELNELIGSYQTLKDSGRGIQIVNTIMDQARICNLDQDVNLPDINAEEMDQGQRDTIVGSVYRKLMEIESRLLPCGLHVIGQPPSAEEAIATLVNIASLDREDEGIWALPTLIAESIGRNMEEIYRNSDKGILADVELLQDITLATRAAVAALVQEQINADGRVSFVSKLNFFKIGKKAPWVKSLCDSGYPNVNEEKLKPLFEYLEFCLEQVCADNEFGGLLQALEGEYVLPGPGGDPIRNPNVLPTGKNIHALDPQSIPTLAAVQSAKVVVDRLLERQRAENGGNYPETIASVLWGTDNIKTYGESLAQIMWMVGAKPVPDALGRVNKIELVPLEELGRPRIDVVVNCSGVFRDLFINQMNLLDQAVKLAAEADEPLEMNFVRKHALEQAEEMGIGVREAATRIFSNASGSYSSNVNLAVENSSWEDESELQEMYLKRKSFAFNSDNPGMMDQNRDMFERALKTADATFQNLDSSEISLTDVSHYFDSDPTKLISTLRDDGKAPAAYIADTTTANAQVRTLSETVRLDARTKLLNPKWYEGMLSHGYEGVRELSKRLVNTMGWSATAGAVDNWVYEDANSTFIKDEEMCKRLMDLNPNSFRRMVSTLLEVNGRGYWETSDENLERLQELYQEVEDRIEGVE
T1 sequence (P72772 whole entry R289A, form open, further chain): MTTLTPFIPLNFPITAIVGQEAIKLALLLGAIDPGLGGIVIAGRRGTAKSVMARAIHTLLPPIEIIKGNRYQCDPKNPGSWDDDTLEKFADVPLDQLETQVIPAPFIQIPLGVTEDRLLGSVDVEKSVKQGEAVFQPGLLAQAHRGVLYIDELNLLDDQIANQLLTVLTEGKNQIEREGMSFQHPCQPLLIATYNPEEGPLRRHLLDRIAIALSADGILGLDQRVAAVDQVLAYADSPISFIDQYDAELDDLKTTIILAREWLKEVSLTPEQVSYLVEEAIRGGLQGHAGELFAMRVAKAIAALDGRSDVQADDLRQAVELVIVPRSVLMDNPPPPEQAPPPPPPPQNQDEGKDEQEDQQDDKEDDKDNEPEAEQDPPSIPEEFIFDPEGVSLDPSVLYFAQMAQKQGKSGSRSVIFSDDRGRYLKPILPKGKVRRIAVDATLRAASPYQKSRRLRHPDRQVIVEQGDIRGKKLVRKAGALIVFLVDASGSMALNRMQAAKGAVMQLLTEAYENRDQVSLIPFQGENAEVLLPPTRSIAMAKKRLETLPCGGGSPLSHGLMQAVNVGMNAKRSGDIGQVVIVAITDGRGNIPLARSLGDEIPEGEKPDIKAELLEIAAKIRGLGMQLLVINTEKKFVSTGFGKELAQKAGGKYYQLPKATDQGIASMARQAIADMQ

CC1=C(CCC(=O)O)c2cc3nc(cc4[nH]c(cc4C)cc4[nH]c(cc1n2)cc4C)C(C)=C3CCC(=O)O [deuteroporphyrin IX]
Km: 0.99 ± 0.12 µM
